Measured values from patent US20230278996A1, “YKL-40 INHIBITORS AND THEIR THERAPEUTIC APPLICATIONS” (Molecure S.A., priority 2022, published 2023).
pKd: −log10 of the molar value.

Target: YKL-40 (Homo sapiens (Human), UniProt P36222)
Experiment: Bio-layer interferometry (BLITz) Kd of biotinylated compounds
Format: binding
Settings: symbol preceded by asterisk; biotinylated compound on streptavidin biosensor; read-out: YKL-40:4, Kd
Protocol: BLITz system (Sartorius) that used Bio-layer interferometry technology was applied to assess Kd of biotinylated compounds. […] During dehydration process the 10 mM stock of biotinylated compound in DMSO was diluted in MST buffer to final concentration of 0.5 μM. In addition, protein stock of recombinant YKL40 (un-tagged, purified in-house) was also prepared in MST buffer at two concentrations: 200 μM and 400 μM. The dehydrated biosensor was applied on the BLITz system that was followed by 5-step procedure: 1) initial baseline for 30 s with MST buffer in tube, 2) loading of 4 μl of biotinylated compound on drop, 3) baseline for 30 s with MST buffer in tube, 4) association of 4 μl of protein stock at one concentration or MST buffer (negative control), 5) dissociation with MST buffer in tube. The same multi-step measurement was done twice for each protein stock concentration and once for negative control. Kd was measured by the BLITz software based on global fitting using the negative control as a reference.

YKL-40, sequence (P36222 22-383): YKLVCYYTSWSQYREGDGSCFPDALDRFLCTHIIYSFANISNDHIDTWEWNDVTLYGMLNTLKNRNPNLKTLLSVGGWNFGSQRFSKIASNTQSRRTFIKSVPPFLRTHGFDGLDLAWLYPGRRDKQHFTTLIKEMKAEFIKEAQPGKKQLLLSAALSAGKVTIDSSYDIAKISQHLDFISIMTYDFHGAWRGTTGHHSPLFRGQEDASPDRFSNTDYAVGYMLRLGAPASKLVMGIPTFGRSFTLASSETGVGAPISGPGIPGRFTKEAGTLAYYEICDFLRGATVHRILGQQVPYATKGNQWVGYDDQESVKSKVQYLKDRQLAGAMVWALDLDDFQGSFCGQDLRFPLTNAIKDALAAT

pKd: > 7.00
SMILES: O=C(CCCC[C@@H]1SC[C@@H]2NC(=O)N[C@@H]21)NCCOCCOCCOCCOCCOCCOCCOCCOCCOCCOCCOCCOCCC(=O)NC[C@H]1CN(C2CCN(c3ccccn3)CC2)[C@@H](Cc2ccc(Cl)cc2)CO1 [Example 5, N-(((2S,5S)-5-(4-chlorobenzyl)-4-(1-(pyridin-2-yl)piperidin-4-yl)morpholin-2-yl)methyl)-1-(5-((3aS,4S,6aR)-2-oxohexahydro-1H-thieno[3,4-d]imidazol-4-yl)pentanamido)-3,6,9,12,15,18,21,24,27,30,33,36-dodecaoxanonatriacontan-39-amide]
